Test system: Influenza A virus
Test: microbe, parasite or virus in culture
Conditions: A/Puerto Rico/8/34, MDCK, 48 h

Compound `Cc1[nH]c(=O)[nH]c(=O)c1CCCc1cn(C2OC(CO)C(O)C2O)nn1` (stereo unspecified) has an IC50 of 68 µM.
